Assay results from patent publication US20230073777A1, “CYCLIC-AMP RESPONSE ELEMENT BINDING PROTEIN (CBP) AND/OR ADENOVIRAL E1A BINDING PROTEIN OF 300 KDA (P300) DEGRADATION COMPOUNDS AND METHODS OF USE” (CULLGEN (SHANGHAI), INC., priority 2019, published 2023).
pIC50: −log10 of the molar value.

Experiments:
HEL = assay: Cell viability assay, HEL; type: cell-based; details: Homo sapiens, Erythroleukemia
Procedure: (§1) Cells were seeded at a density of 5000 cells per well in 96-well assay plates and treated with test compounds following a 12-point 3-fold serial dilution. Three days later, cell viability was determined using the CellTiter-Glo assay kit according to the manufacturer's instructions. The dose-response curves were determined and IC50 values were calculated using the GraphPad Prism software following a nonlinear regression (least squares fit) method.
(§2) The IC50 value of each compound was determined as described in FIG. 4 and calculated using the GraphPad Prism 5.0 software.

NCI-H520 = assay: Cell viability assay, NCI-H520; type: cell-based; details: Homo sapiens, NCI-H520, Non-small cell lung cancer
Procedure: as §1, §2

MEG-01 = assay: Cell viability assay, MEG-01; type: cell-based; details: Homo sapiens, MEG-01, Chronic myeloid leukemia
Procedure: as §1, §2

VCaP = assay: Cell viability assay, VCaP; type: cell-based; details: Homo sapiens, Prostate carcinoma
Procedure: as §1, §2

CBP = target: T1, CBP (Homo sapiens, UniProt Q92793); assay: Pharmacodynamic study, CBP in 22RV1 subcutaneous xenograft tumors; type: in vivo, Athymic nude mice; details: single dose 40 mg/kg, i.p. or p.o., six hours after administration (FIG. 9)
T1 construct: from tissue; host or cells: 22RV1 subcutaneous xenograft tumours in athymic nude mice
Procedure: (§3) In addition to cultured cells, athymic nude mice bearing 22RV1 subcutaneous xenograft tumors at the right flank were intraperitoneally or orally treated with 40 mg/kg bivalent compounds. Six hours after drug administration, animals were sacrificed for immunoblotting of P300 and CBP in homogenized xenograft tumor masses. […] Moreover, ICR mice were orally treated with 40 mg/kg bivalent compounds. Six hours after drug administration, animals were sacrificed for immunoblotting of CBP in homogenized lung tissues.
(§4) Athymic nude mice bearing 22RV1 subcutaneous xenograft tumors at the right flank were intraperitoneally or orally treated with selected bivalent compounds at 40 mg/kg. Six hours after drug administration, animals were sacrificed, and xenograft tumors were collected for immunoblotting of P300 and CBP.
(§5) All animal experiments were performed under protocols approved by the Institutional Animal Care and Use Committee (IACUC) of Cullgen. Athymic nude mice (male, 5-weeks old) received 5 million 22RV1 cells subcutaneously inoculated at the right flank site. Twenty days following inoculation, tumors were approximately 500 mm^3 in size. Tumor-bearing mice were treated intraperitoneally or via oral gavage with vehicle or bivalent compounds at indicated doses. 6 hours after drug administration, animals were sacrificed, tumors were resected. Small chunks of tumors were homogenized for immunoblotting of P300/CBP and other proteins as indicated. Alternatively, ICR mice (male, 5-weeks old) were treated via oral gavage with vehicle or bivalent compounds at indicated doses. 6 hours after drug administration, animals were sacrificed, lung tissues were resected. Small chunks of lung tissues were homogenized for immunoblotting of CBP and other proteins as indicated.

SU-DHL-1 = assay: Cell viability assay, SU-DHL-1; type: cell-based; details: Homo sapiens, SU-DHL-1, Diffuse large B-cell lymphoma
Procedure: as §1, §2

P300 [1] = target: T2, P300 (Homo sapiens, UniProt Q09472); assay: Pharmacodynamic study, P300 in 22RV1 subcutaneous xenograft tumors; type: in vivo, Athymic nude mice; design: from tissue; host or cells: 22RV1 subcutaneous xenograft tumours in athymic nude mice; details: single dose 40 mg/kg, i.p. or p.o., six hours after administration (FIG. 9)
Procedure: as §3, §4, §5

MM.1S = assay: Cell viability assay, MM.1S; type: cell-based; details: Homo sapiens, MM1.S, Multiple Myeloma
Procedure: as §1, §2

SK-BR-3 = assay: Cell viability assay, SK-BR-3; type: cell-based; details: Homo sapiens, SK-BR-3, breast carcinoma
Procedure: as §1, §2

Pfeiffer = assay: Cell viability assay, Pfeiffer; type: cell-based; details: Homo sapiens, Diffuse large B-cell lymphoma
Procedure: as §1, §2

MM.1R = assay: Cell viability assay, MM.1R; type: cell-based; details: Multiple Myeloma
Procedure: as §1, §2

LNCaP cells = assay: LNCaP cell viability assay (CellTiter-Glo); type: cell-based; details: Homo sapiens
Method in brief: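 LNCaP cells, 5000/well, exposed to compounds in 12-point 3-fold serial dilution (top 10 μM) for 3 days. Viability by CellTiter-Glo luminescence, normalized to untreated cells; IC50 by least-squares nonlinear regression.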

P300 [2] = target: T2, P300; assay: Immunoblotting of P300 protein levels in LNCaP or 22RV1 cells; type: cell-based; design: LNCaP or 22RV1 cells that express CBP/P300 proteins were treated with GNE-781 or the bivalent compounds; endogenous in cells; host or cells: LNCaP (clone FGC) or 22RV1 cells; details: for inhibition at 0.01 µM: percentage of inhibition of p300 at 10 nM (Table 2), read-out: Degradation (10 nM)
Method in brief: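 LNCaP or 22RV1 cells treated with compounds for indicated hours, DMSO as negative control. RIPA lysates resolved by SDS-PAGE and immunoblotted for P300 or CBP, tubulin or vinculin as loading control; chemiluminescent bands quantitated.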

L-363 = assay: Cell viability assay, L-363; type: cell-based; details: Homo sapiens, L-363, Multiple myeloma
Procedure: as §1, §2

HL-60 = assay: Cell viability assay, HL-60; type: cell-based; details: Homo sapiens, HL-60, Acute myeloid leukemia
Procedure: as §1, §2

AMO-1 = assay: Cell viability assay, AMO-1; type: cell-based; details: Homo sapiens, AMO1, AMO-1, Multiple Myeloma
Procedure: as §1, §2

[3] = 72 h, LNCaP prostate cancer cell viability inhibition, 3 days, CellTiter-Glo (Table 2)
[4] = cell viability, LNCaP clone FGC, Prostate carcinoma (Table 4)

T2 sequence (Q09472 whole entry): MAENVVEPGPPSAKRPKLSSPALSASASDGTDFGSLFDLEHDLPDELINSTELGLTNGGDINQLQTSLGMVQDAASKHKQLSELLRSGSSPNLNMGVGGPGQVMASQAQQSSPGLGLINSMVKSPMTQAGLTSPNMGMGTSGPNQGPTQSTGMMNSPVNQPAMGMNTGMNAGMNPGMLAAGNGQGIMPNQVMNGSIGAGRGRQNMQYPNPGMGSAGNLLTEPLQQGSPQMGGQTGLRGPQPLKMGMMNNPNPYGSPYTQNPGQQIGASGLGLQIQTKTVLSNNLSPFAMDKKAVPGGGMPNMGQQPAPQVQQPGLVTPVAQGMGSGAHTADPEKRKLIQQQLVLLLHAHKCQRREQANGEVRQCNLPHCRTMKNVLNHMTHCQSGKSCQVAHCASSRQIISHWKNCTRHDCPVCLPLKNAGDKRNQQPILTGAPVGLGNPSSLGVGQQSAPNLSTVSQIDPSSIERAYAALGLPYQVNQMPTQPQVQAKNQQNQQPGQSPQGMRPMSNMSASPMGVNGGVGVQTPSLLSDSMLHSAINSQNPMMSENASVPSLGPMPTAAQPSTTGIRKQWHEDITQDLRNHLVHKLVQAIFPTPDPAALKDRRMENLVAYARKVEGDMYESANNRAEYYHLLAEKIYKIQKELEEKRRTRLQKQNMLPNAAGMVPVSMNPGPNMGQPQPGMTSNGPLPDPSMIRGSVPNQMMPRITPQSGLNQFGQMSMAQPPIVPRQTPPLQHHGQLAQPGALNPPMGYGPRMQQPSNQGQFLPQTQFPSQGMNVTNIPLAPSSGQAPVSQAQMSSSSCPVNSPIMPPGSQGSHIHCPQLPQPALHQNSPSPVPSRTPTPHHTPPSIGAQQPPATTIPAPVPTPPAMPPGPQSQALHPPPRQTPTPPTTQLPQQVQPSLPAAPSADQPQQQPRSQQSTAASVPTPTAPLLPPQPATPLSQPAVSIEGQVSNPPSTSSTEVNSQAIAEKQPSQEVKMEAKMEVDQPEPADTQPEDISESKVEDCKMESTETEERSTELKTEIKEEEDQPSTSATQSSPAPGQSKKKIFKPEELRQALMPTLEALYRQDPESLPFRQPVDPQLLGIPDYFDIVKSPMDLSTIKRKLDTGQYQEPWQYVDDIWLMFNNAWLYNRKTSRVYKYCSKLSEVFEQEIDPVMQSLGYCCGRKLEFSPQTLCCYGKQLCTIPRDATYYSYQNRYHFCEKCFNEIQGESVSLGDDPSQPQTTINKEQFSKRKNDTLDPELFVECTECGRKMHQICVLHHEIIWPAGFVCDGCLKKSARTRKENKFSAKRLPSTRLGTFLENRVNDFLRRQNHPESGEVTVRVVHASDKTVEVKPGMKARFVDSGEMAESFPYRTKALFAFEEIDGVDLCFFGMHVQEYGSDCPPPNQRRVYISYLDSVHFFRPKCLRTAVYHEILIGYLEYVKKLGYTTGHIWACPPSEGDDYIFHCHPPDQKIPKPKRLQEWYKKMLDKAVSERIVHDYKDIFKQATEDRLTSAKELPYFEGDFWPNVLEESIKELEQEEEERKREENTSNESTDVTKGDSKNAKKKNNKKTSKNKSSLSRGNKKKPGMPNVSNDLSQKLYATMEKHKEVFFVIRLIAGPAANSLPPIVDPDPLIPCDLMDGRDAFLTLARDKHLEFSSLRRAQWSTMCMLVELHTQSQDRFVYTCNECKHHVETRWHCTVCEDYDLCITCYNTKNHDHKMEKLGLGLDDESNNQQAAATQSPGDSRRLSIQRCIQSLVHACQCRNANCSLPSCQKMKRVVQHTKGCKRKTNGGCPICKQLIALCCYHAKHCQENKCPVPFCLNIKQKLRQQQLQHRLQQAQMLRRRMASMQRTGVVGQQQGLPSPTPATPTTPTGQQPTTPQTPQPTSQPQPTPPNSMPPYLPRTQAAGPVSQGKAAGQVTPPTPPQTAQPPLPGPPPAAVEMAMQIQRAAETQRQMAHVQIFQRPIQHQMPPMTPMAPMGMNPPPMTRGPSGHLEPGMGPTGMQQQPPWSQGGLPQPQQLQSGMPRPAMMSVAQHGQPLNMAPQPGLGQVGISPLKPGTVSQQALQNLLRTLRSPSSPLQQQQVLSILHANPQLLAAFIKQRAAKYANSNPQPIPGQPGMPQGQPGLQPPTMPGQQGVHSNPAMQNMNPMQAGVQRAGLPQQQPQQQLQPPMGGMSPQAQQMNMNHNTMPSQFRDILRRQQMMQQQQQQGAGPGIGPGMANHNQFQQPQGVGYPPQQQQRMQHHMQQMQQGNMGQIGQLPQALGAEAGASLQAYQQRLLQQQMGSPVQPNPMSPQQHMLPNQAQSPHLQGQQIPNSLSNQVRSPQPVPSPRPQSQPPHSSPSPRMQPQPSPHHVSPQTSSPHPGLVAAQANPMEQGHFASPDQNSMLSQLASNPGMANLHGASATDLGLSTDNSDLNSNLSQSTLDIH
T1 sequence (Q92793 whole entry): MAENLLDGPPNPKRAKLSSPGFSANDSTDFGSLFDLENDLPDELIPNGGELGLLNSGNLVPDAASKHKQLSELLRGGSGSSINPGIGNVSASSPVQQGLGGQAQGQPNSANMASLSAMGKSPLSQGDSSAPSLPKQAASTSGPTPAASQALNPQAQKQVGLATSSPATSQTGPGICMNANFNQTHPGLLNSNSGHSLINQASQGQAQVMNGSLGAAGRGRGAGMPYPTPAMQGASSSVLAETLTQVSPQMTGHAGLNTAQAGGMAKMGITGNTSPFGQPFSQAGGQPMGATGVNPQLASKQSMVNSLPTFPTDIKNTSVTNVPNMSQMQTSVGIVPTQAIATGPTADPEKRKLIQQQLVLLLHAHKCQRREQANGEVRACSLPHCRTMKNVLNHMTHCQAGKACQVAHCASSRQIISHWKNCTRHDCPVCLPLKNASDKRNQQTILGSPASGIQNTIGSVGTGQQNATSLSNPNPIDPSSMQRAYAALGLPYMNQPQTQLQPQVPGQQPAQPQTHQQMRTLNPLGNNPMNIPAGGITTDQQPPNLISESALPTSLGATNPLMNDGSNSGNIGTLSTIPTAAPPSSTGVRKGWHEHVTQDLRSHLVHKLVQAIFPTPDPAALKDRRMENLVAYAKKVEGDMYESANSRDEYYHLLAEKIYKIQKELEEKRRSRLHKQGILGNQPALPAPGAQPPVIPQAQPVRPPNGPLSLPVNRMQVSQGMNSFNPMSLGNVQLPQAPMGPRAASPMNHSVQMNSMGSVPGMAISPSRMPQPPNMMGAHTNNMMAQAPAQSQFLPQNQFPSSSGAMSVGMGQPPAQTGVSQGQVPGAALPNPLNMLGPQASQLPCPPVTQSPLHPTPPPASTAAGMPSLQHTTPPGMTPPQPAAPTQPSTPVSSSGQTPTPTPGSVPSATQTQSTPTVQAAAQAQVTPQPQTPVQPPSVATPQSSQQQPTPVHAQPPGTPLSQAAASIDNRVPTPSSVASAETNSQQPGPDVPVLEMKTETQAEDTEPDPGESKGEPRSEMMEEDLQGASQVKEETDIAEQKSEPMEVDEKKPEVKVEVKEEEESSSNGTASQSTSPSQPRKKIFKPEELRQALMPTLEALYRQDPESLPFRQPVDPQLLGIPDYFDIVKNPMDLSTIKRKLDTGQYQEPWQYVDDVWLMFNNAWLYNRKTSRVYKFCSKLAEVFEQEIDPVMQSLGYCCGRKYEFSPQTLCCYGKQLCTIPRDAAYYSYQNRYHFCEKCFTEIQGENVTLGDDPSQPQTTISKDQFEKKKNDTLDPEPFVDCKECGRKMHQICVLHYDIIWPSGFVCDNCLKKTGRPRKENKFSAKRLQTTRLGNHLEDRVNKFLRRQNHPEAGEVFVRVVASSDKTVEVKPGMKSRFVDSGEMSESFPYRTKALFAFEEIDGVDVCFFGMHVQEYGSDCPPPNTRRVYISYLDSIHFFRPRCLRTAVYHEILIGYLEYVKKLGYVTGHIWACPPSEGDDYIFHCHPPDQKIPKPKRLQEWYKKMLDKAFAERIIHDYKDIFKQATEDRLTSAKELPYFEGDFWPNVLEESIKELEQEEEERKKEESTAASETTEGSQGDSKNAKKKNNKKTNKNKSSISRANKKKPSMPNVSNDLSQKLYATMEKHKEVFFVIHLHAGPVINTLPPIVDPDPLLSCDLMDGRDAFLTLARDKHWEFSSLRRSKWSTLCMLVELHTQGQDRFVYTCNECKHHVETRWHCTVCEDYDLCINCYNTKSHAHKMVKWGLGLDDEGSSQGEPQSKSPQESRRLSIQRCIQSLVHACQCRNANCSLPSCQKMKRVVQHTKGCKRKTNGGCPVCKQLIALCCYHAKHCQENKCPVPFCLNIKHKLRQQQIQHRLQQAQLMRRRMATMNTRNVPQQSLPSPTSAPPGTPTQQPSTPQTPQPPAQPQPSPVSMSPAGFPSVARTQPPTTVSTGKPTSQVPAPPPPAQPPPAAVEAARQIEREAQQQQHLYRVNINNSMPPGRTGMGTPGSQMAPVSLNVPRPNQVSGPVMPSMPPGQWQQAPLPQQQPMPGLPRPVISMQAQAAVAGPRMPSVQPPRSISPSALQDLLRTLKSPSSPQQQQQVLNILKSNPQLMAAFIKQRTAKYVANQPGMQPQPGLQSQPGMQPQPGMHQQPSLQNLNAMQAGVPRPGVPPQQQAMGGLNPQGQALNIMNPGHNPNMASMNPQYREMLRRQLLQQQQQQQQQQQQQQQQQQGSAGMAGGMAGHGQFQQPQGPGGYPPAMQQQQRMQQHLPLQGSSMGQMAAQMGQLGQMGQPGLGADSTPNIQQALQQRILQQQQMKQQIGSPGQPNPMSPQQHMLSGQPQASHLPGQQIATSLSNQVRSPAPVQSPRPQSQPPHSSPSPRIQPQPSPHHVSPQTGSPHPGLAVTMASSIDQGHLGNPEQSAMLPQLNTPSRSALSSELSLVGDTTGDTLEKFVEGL

pIC50 (NCI-H520)	pIC50 (VCaP)	CBP protein levels in 22RV1 xenograft tumors (CBP)	pIC50 (SU-DHL-1)	P300 protein levels in 22RV1 xenograft tumors (P300 [1])	pIC50 (MM.1S)	pIC50 (SK-BR-3)	pIC50 (MM.1R)	pIC50 (LNCaP cells; [3])	pIC50 (LNCaP cells; [4])	inhibition at 0.01 µM (P300 [2]) [%]	pIC50 (HL-60)	P300 protein levels, dependence on interaction with cereblon (P300 [2]; LNCaP or 22RV1 cells, various concentrations (FIG. 7))	Structure (SMILES)	pIC50 (HEL)	pIC50 (MEG-01)	pIC50 (Pfeiffer)	pIC50 (L-363)	pIC50 (AMO-1)
8.55	8.68	significantly reducing	8.47	significantly reducing	9.15	8.26	9.52	8.92	8.89	> 80	7.77	–	CNC(=O)N1CCc2c(c(N3CCCc4cc(-c5cnn(C)c5)c(C(F)F)cc43)nn2C2CCN(C(=O)CCCCCCCNc3ccc4c(c3)C(=O)N(C3CCC(=O)NC3=O)C4=O)CC2)C1 (centres unmarked) [P-007, 3-(7-(difluoromethyl)-6-(1-methyl-1H-pyrazol-4-yl)-3,4-dihydroquinolin-1(2H)-yl)-1-(1-(8-((2-(2,6-dioxopiperidin-3-yl)-1,3-dioxoisoindolin-5-yl)amino)octanoyl)piperidin-4-yl)-N-methyl-1,4,6,7-tetrahydro-5H-pyrazolo[4,3-c]pyridine-5-carboxamide]	7.79	8.10	8.68	8.52	7.41
8.70	8.44	significantly reducing	9.10	significantly reducing	9.70	8.00	10.00	9.40	9.22	> 80	8.54	P300 degradation induced by P-034	CNC(=O)N1CCc2c(c(N3CCCc4cc(-c5cnn(C)c5)c(C(F)F)cc43)nn2C2CCN(C(=O)CCCCCNc3cccc4c3C(=O)N(C3CCC(=O)NC3=O)C4=O)CC2)C1 (centres unmarked) [P-034, 3-(7-(difluoromethyl)-6-(1-methyl-1H-pyrazol-4-yl)-3,4-dihydroquinolin-1(2H)-yl)-1-(1-(6-((2-(2,6-dioxopiperidin-3-yl)-1,3-dioxoisoindolin-4-yl)amino)hexanoyl)piperidin-4-yl)-N-methyl-1,4,6,7-tetrahydro-5H-pyrazolo[4,3-c]pyridine-5-carboxamide]	7.42	7.82	9.15	9.40	6.85
